# From patent publication US20240116882A1, “NOVEL BENZOTRIAZOLE DERIVATIVE HAVING INHIBITORY ACTIVITY AGAINST ECTONUCLEOTIDE PYROPHOSPHATASE-PHOSPHODIESTERASE, AND USE THEREOF” (TXINNO BIOSCIENCE INC., priority 2021, published 2024)
# Counter-ions that a name gives are not always drawn.
# Target: T1, human recombinant ENPP1 enzymes (Homo sapiens, UniProt P22413)
# T1 construct: purchased R & D systems
# T1 sequence (P22413 1-925): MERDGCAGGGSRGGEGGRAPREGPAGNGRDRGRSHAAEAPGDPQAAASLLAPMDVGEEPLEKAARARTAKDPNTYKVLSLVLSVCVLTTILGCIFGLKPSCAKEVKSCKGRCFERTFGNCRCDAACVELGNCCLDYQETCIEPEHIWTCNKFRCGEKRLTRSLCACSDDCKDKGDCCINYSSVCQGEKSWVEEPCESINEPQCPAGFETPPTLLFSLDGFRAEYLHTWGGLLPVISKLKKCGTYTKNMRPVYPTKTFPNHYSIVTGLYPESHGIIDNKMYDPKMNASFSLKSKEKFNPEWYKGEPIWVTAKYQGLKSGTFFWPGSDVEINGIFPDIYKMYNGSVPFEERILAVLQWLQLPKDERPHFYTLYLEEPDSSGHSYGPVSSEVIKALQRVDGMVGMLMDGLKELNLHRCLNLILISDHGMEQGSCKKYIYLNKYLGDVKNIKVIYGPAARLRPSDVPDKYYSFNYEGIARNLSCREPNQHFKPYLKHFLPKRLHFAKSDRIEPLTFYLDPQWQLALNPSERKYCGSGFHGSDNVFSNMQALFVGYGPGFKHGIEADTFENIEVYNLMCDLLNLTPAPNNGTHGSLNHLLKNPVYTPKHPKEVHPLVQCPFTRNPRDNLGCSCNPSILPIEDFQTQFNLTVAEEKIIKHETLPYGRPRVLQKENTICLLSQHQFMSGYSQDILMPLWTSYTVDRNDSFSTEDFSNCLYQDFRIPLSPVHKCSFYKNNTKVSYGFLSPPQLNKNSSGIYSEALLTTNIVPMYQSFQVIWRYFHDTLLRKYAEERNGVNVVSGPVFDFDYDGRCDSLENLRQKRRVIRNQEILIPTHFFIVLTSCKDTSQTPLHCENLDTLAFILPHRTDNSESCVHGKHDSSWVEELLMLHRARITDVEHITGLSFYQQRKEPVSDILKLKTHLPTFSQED
# Test: ENPP1 Enzyme Assay with cGAMP Substrate (AMP-Glo)
# Assay type: biochemical
# Conditions: human recombinant ENPP1, cGAMP 5 μM, 37° C. 90 minutes, AMP-Glo luminescence; read-out: Enzymatic activity (IC50)
# Method: ENPP1 hydrolyzes nucleotides or nucleotide derivatives to produce nucleoside-5′-monophosphate and pyrophosphate. In addition, ENPP1 hydrolyzes 2′,3′-cGAMP to produce 5′-adenosine monophosphate (AMP) and 5′-guanosine monophosphate (GMP). AMP produced from the reaction is measured using the AMP-Glo® kit (Promega). The AMP-Glo® kit contains two reagents. The first reagent terminates the AMP-producing enzymatic reaction, removes ATP and converts the produced AMP into ADP. The second reagent converts ADP into ATP which is used to generate luminescence in the luciferase reaction. The amount of luminescence measured is proportional to the amount of AMP produced by ENPP1.
# The final reaction solution contains 50 mM Tris (pH 8.5) buffer, 250 mM NaCl, 0.5 mM CaCl2), 1 μM ZnCl2, 5% glycerol and 1% DMSO. Serially diluted ENPP1 inhibitors (typically in the range of 10 μM to 0.5 nM) were pre-stored with human recombinant ENPP1 enzymes (R & D systems) at 3 ng/reaction and room temperature (RT) for 5 to 10 minutes. The reaction was initiated by addition of cGAMP (at a final concentration of 5 μM) and reacted at 37° C. for 90 minutes. At the end of the reaction, 10 μl of the AMP-Glo first reagent was added to stop the reaction and the result was stored at room temperature for 1 hour. After storage, 20 μl of an AMP detection solution (a mixture of AMP-Glo II reagent and Kinase-Glo at a ratio of 1:100) was added and stored at room temperature for 1 hour. Luminescence signals were measured using a Victor® plate reader (Perkin Elmer). The maximal activity control (containing enzymes and substrates in the presence of 1% DMSO; MAX) and the minimal activity control (containing substrates and 1% DMSO; MIN) were evaluated simultaneously. In each experiment, serially diluted reference ENPP1 inhibitors were tested as well. IC50, indicating % residual activity versus compound concentration was determined by fitting inhibition curves using the 3-parameter analysis of GraphPad Prism® software. Serially diluted samples of one compound were tested two or more times and an average IC50 of each compound was calculated.
row,Structure (SMILES),IC50 [µM]
1,"COc1cc2nnn(-c3ccc(CNS(N)(=O)=O)cc3F)c2cc1F [Example 93, N-(3-fluoro-4-(6-fluoro-5-methoxy-1H-benzo[d][1,2,3]triazol-1-yl)benzyl)sulfamide]",< 1
2,"COc1ccc2c(c1)nnn2-c1ccc2c(c1)CN(S(N)(=O)=O)C2 [Example 94, 5-(5-methoxy-1H-benzo[d][1,2,3]triazol-1-yl)isoindoline-2-sulfonamide]",< 1
3,COc1ccc2c(c1)nnn2-c1ccc2c(c1)CC(NS(N)(=O)=O)C2 (centres unmarked) [Example 95],< 1
4,"COc1ccc2c(c1)nnn2-c1ccc2c(c1)CCN(S(N)(=O)=O)C2 [Example 96, 6-(5-methoxy-1H-benzo[d][1,2,3]triazol-1-yl)-3,4-dihydroisoquinoline-2(1H)sulfonamide]",< 1
5,"COc1ccc2c(c1)nnn2-c1ccc2c(c1)CN(S(N)(=O)=O)CC2 [Example 97, 7-(5-methoxy-1H-benzo[d][1,2,3]triazol-1-yl)-3,4-dihydroisoquinoline-2(1H)sulfonamide]",< 1
6,"COc1ccc2c(c1)nnn2-c1ccc2c(c1)CN(S(N)(=O)=O)CCC2 [Example 98, 8-(5-methoxy-1H-benzo[d][1,2,3]triazol-1-yl)-1,3,4,5-tetrahydro-2H-benzo[c]azepine-2-sulfonamide]",> 10
7,"COc1ccc2c(c1)nnn2-c1cc2c(cc1F)CN(S(N)(=O)=O)CC2 [Example 101, 7-fluoro-6-(5-methoxy-1H-benzo[d][1,2,3]triazol-1-yl)-3,4-dihydroisoquinoline-2(1H)-sulfonamide]",< 1
8,"COc1cc2nnn(-c3ccc4c(c3)CN(S(N)(=O)=O)C4)c2cc1OC [Example 102, 5-(5,6-dimethoxy-1H-benzo[d][1,2,3]triazol-1-yl)-isoindoline-2-sulfonamide]",< 1
9,"COc1cc2nnn(-c3ccc4c(c3)CC(NS(N)(=O)=O)C4)c2cc1OC (centres unmarked) [Example 103, N-(5-(5,6-dimethoxy-1H-benzo[d][1,2,3]triazol-1-yl)-dihydro-1H-inden-2-yl)sulfamide]",< 1
10,"COc1ccc2c(c1)nnn2Cc1ccc(NS(N)(=O)=O)cc1 [Example 104, N-(4-((5-methoxy-1H-benzo[d][1,2,3]triazol-1-yl)methyl)phenyl)sulfamide Hydrochloride]",1 to 10
11,"COc1ccc2c(c1)nnn2Cc1ccc(CNS(N)(=O)=O)cc1 [Example 105, N-(4-((5-methoxy-1H-benzo[d][1,2,3]triazol-1-yl)methyl)benzyl)sulfamide Hydrochloride]",> 10
12,"COc1ccc2c(c1)nnn2-c1ccc(CNS(N)(=O)=O)s1 [Example 106, N-((5-(5-methoxy-1H-benzo[d][1,2,3]triazol-1-yl)thiophen-2-yl)methyl)sulfamide]",> 10
13,"COc1ccc2nn(Cc3ccc(NS(N)(=O)=O)cc3)nc2c1 [Example 109, Hydrochloride]",1 to 10
14,"COc1ccc2nn(Cc3ccc(CNS(N)(=O)=O)cc3)nc2c1 [Example 110, N-(4-((5-methoxy-2H-benzo[d][1,2,3]triazole-2-yl)benzyl)sulfamide Hydrochloride]",1 to 10
15,"COc1ccc2c(c1)nnn2C1CCN(CCS(=O)(=O)F)CC1 [Example 111, 2-(4-(5-methoxy-1H-benzo[d][1,2,3]triazol-1-yl)piperidin-1-yl)ethane-1-sulfonyl Fluoride]",> 10
16,"COc1ccc2c(c1)nnn2-c1ccc(CNS(C)(=O)=O)cc1F [Example 112, N-(3-fluoro-4-(5-methoxy-1H-benzo[d][1,2,3]triazol-1-yl)benzyl)methanesulfonamide]",> 10
17,"CCS(=O)(=O)NCc1ccc(-n2nnc3cc(OC)ccc32)c(F)c1 [Example 113, N-(3-fluoro-4-(5-methoxy-1H-benzo[d][1,2,3]triazol-1-yl)benzyl)ethanesulfonamide]",> 10
18,"COc1ccc2c(c1)nnn2-c1ccc(CNS(=O)(=O)c2ccc(C)cc2)cc1F [Example 114, N-(3-fluoro-4-(5-methoxy-1H-benzo[d][1,2,3]triazol-1-yl)benzyl)-4-methylbenzenesulfonamide]",> 10
19,"COc1ccc2c(c1)nnn2-c1ccc(C(=O)O)cc1F [Example 116, 3-fluoro-4-(5-methoxy-1H-benzo[d][1,2,3]triazol-1-yl)benzoic Acid]",> 10
20,"CCOP(=O)(NCc1ccc(-n2nnc3cc(OC)ccc32)c(F)c1)OCC [Example 117, diethyl-(3-fluoro-4-(5-methoxy-1H-benzo[d][1,2,3]triazol-1-yl)benzyl)phosphoamidite]",> 10
21,COc1ccc2c(c1)nnn2-c1ccc(P(=O)(O)O)cc1 [Example 118],> 10
22,COc1ccc2c(c1)nnn2-c1ccc(CP(=O)(O)O)cc1 [Example 119],< 1
23,"COc1ccc2c(ccn2-c2ccc(CNS(N)(=O)=O)cc2)c1 [Example 122, N-(4-(5-methoxy-1H-indol-1-yl)benzyl)sulfamide]",> 10
